System: 485368-065-R4-J2-PDC spheroids with HUVEC/MSC, viability
Assay: Anticancer human tumor 485368-065-R4-J2-PDC patient-derived pancreatic carcinoma cell line growth inhibition [CLK]
Settings: for IC50: curve of first compound; for viability, T/C: stronger effect = lower value
In short: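 Multi-cell-type spheroids combined patient-derived tumor cells with HUVEC endothelial cells and human mesenchymal stem cells. Paired agents were dosed in half-log steps down from about clinical Cmax, or from 10 microM where Cmax was unknown.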

[1] = second compound 0.0316 µM, first compound 0.0316 µM
[2] = second compound 0.0316 µM, first compound 0.1 µM
[3] = second compound 0.0316 µM, first compound 0.316 µM
[4] = second compound 0.0316 µM, first compound 1 µM
[5] = second compound 0.0316 µM, first compound 3.16 µM
[6] = second compound 0.0316 µM, first compound 10 µM
[7] = second compound 0.1 µM, first compound 0.0316 µM
[8] = second compound 0.1 µM, first compound 0.1 µM
[9] = second compound 0.1 µM, first compound 0.316 µM
[10] = second compound 0.1 µM, first compound 1 µM
[11] = second compound 0.1 µM, first compound 3.16 µM
[12] = second compound 0.1 µM, first compound 10 µM
[13] = second compound 0.316 µM, first compound 0.0316 µM
[14] = second compound 0.316 µM, first compound 0.1 µM
[15] = second compound 0.316 µM, first compound 0.316 µM
[16] = second compound 0.316 µM, first compound 1 µM
[17] = second compound 0.316 µM, first compound 3.16 µM
[18] = second compound 0.316 µM, first compound 10 µM
[19] = second compound 1 µM, first compound 0.0316 µM
[20] = second compound 1 µM, first compound 0.1 µM
[21] = second compound 1 µM, first compound 0.316 µM
[22] = second compound 1 µM, first compound 1 µM
[23] = second compound 1 µM, first compound 3.16 µM
[24] = second compound 1 µM, first compound 10 µM
[25] = second compound 3.16 µM, first compound 0.0316 µM
[26] = second compound 3.16 µM, first compound 0.1 µM
[27] = second compound 3.16 µM, first compound 0.316 µM
[28] = second compound 3.16 µM, first compound 1 µM
[29] = second compound 3.16 µM, first compound 3.16 µM
[30] = second compound 3.16 µM, first compound 10 µM
[31] = second compound 10 µM, first compound 0.0316 µM
[32] = second compound 10 µM, first compound 0.1 µM
[33] = second compound 10 µM, first compound 0.316 µM
[34] = second compound 10 µM, first compound 1 µM
[35] = second compound 10 µM, first compound 3.16 µM
[36] = second compound 10 µM, first compound 10 µM
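Also: spheroids exposed to compounds for seven days.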
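For viability, T/C in this document: 100% = DMSO vehicle control wells.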

`CC(C)CC(NC(=O)C(Cc1ccccc1)NC(=O)c1cnccn1)B(O)O` (stereo unspecified) + CNC(=O)c1ccc(Nc2nc(OC3CCCC3)c3c(-c4ccc5nc(C)oc5c4)c[nH]c3n2)c(OC)c1 showed an IC50 (second compound 0.0316 µM) of 0.00722 µM, an IC50 (second compound 0.1 µM) of 0.00719 µM and an IC50 (second compound 0.316 µM) of 0.00721 µM. It also gave an IC50 (second compound 1 µM) of 0.00669 µM, an IC50 (second compound 3.16 µM) of 0.00566 µM and an IC50 (second compound 10 µM) of 0.00491 µM. It also gave a viability, T/C (second compound 0.0316 µM, first compound 0.000949 µM) of 99.6%, a viability, T/C (second compound 0.0316 µM, first compound 0.003 µM) of 122% and a viability, T/C (second compound 0.0316 µM, first compound 0.00949 µM) of 31.1%. The viability, T/C (second compound 0.0316 µM, first compound 0.03 µM) was 16.4%, the viability, T/C (second compound 0.0316 µM, first compound 0.0949 µM) was 13.2% and the viability, T/C (second compound 0.0316 µM, first compound 0.3 µM) was 3.24%. It also gave a viability, T/C (second compound 0.1 µM, first compound 0.000949 µM) of 95.3%, a viability, T/C (second compound 0.1 µM, first compound 0.003 µM) of 115% and a viability, T/C (second compound 0.1 µM, first compound 0.00949 µM) of 32.5%. It also gave a viability, T/C (second compound 0.1 µM, first compound 0.03 µM) of 13.6%, a viability, T/C (second compound 0.1 µM, first compound 0.0949 µM) of 11.8% and a viability, T/C (second compound 0.1 µM, first compound 0.3 µM) of 3.58%. For the same molecule, the viability, T/C (second compound 0.316 µM, first compound 0.000949 µM) was 94.3%, the viability, T/C (second compound 0.316 µM, first compound 0.003 µM) was 112% and the viability, T/C (second compound 0.316 µM, first compound 0.00949 µM) was 33.4%. The viability, T/C (second compound 0.316 µM, first compound 0.03 µM) was 12.5%, the viability, T/C (second compound 0.316 µM, first compound 0.0949 µM) was 10.1% and the viability, T/C (second compound 0.316 µM, first compound 0.3 µM) was 3.9%. The viability, T/C (second compound 1 µM, first compound 0.000949 µM) was 102%, the viability, T/C (second compound 1 µM, first compound 0.003 µM) was 101% and the viability, T/C (second compound 1 µM, first compound 0.00949 µM) was 28%. It also gave a viability, T/C (second compound 1 µM, first compound 0.03 µM) of 12.9%, a viability, T/C (second compound 1 µM, first compound 0.0949 µM) of 7.65% and a viability, T/C (second compound 1 µM, first compound 0.3 µM) of 1.74%. It also gave a viability, T/C (second compound 3.16 µM, first compound 0.000949 µM) of 89.4%, a viability, T/C (second compound 3.16 µM, first compound 0.003 µM) of 89.7% and a viability, T/C (second compound 3.16 µM, first compound 0.00949 µM) of 17.9%. The viability, T/C (second compound 3.16 µM, first compound 0.03 µM) was 7.21%, the viability, T/C (second compound 3.16 µM, first compound 0.0949 µM) was 5.69% and the viability, T/C (second compound 3.16 µM, first compound 0.3 µM) was 2.56%. It also gave a viability, T/C (second compound 10 µM, first compound 0.000949 µM) of 77.9%, a viability, T/C (second compound 10 µM, first compound 0.003 µM) of 78.2% and a viability, T/C (second compound 10 µM, first compound 0.00949 µM) of 12.5%. For the same molecule, the viability, T/C (second compound 10 µM, first compound 0.03 µM) was 5.34%, the viability, T/C (second compound 10 µM, first compound 0.0949 µM) was 4.07% and the viability, T/C (second compound 10 µM, first compound 0.3 µM) was 1.36%.
`CC1COCCN1c1cc(C2(S(C)(=N)=O)CC2)nc(-c2ccnc3[nH]ccc23)n1` (stereo unspecified) + CNC(=O)c1ccc(Nc2nc(OC3CCCC3)c3c(-c4ccc5nc(C)oc5c4)c[nH]c3n2)c(OC)c1 was tested, and the IC50 (second compound 0.0316 µM) was greater than 10 µM, the IC50 (second compound 0.1 µM) was greater than 10 µM and the IC50 (second compound 0.316 µM) was greater than 10 µM. The IC50 (second compound 1 µM) was greater than 10 µM, the IC50 (second compound 3.16 µM) was greater than 10 µM and the IC50 (second compound 10 µM) was greater than 10 µM. The viability, T/C [1] was 82.7%, the viability, T/C [2] was 96% and the viability, T/C [3] was 102%. It also gave a viability, T/C [4] of 101%, a viability, T/C [5] of 99.2% and a viability, T/C [6] of 107%. For the same molecule, the viability, T/C [7] was 91.1%, the viability, T/C [8] was 95.1% and the viability, T/C [9] was 101%. It also gave a viability, T/C [10] of 97.6%, a viability, T/C [11] of 102% and a viability, T/C [12] of 97.4%. The viability, T/C [13] was 84.7%, the viability, T/C [14] was 85% and the viability, T/C [15] was 75.9%. The viability, T/C [16] was 89.7%, the viability, T/C [17] was 90.3% and the viability, T/C [18] was 82%. It also gave a viability, T/C [19] of 80.3%, a viability, T/C [20] of 78% and a viability, T/C [21] of 72.6%. For the same molecule, the viability, T/C [22] was 81.2%, the viability, T/C [23] was 90.1% and the viability, T/C [24] was 73.4%. It also gave a viability, T/C [25] of 76.3%, a viability, T/C [26] of 78.2% and a viability, T/C [27] of 68%. The viability, T/C [28] was 72.7%, the viability, T/C [29] was 68.7% and the viability, T/C [30] was 54.1%. It also gave a viability, T/C [31] of 74%, a viability, T/C [32] of 70.6% and a viability, T/C [33] of 62.2%. For the same molecule, the viability, T/C [34] was 71.6%, the viability, T/C [35] was 69% and the viability, T/C [36] was 59.6%.
`O=C(c1cc(Cc2n[nH]c(=O)c3ccccc23)ccc1F)N1CCN(C(=O)C2CC2)CC1` + CNC(=O)c1ccc(Nc2nc(OC3CCCC3)c3c(-c4ccc5nc(C)oc5c4)c[nH]c3n2)c(OC)c1 was tested, and the IC50 (second compound 0.0316 µM) was greater than 10 µM, the IC50 (second compound 0.1 µM) was greater than 10 µM and the IC50 (second compound 0.316 µM) was greater than 10 µM. It also gave an IC50 (second compound 1 µM) greater than 10 µM, an IC50 (second compound 3.16 µM) greater than 10 µM and an IC50 (second compound 10 µM) greater than 10 µM. It also gave a viability, T/C [1] of 88%, a viability, T/C [2] of 101% and a viability, T/C [3] of 94.5%. The viability, T/C [4] was 102%, the viability, T/C [5] was 106% and the viability, T/C [6] was 100%. It also gave a viability, T/C [7] of 97.5%, a viability, T/C [8] of 106% and a viability, T/C [9] of 104%. It also gave a viability, T/C [10] of 106%, a viability, T/C [11] of 101% and a viability, T/C [12] of 86.1%. It also gave a viability, T/C [13] of 87.9%, a viability, T/C [14] of 91% and a viability, T/C [15] of 91.6%. For the same molecule, the viability, T/C [16] was 83.7%, the viability, T/C [17] was 84.3% and the viability, T/C [18] was 81.7%. It also gave a viability, T/C [19] of 83.6%, a viability, T/C [20] of 83.3% and a viability, T/C [21] of 86.2%. The viability, T/C [22] was 78.3%, the viability, T/C [23] was 78.8% and the viability, T/C [24] was 71.8%. The viability, T/C [25] was 75.9%, the viability, T/C [26] was 77.6% and the viability, T/C [27] was 72.9%. For the same molecule, the viability, T/C [28] was 73.5%, the viability, T/C [29] was 69.6% and the viability, T/C [30] was 68.2%. It also gave a viability, T/C [31] of 76.3%, a viability, T/C [32] of 86.9% and a viability, T/C [33] of 77.5%. It also gave a viability, T/C [34] of 76.5%, a viability, T/C [35] of 77.3% and a viability, T/C [36] of 59.3%.

— PubChem BioAssay AID2060617 (Molecular Pharmacology Branch, DTP, NCI, 2025)
